Experimental data reported in US12534450B2, “Methods and compositions for targeting PD-L1” (Aligos Therapeutics, Inc., priority 2021, dated 2026).

What was measured:
[1] = system: PD-1/PD-L1 interaction; assay: PD-1/PD-L1 NFAT Reporter Assay (co-culture of Jurkat T cells overexpressing PD-1 and PD-L1 expressing CHO cells); type: cell-based; conditions: Homo sapiens, Jurkat, 6 h, co-culture 6 hrs at 37° C., NFAT-mediated luciferase activity
Experimental: Blocking the PD-1/PD-L1 interaction will release the inhibitory signal and results in TCR signaling and NFAT-mediated luciferase activity.
CHO cells expressing surface-bound anti-CD3 antibodies and PD-L1 were first seeded overnight and treated with the compounds. Jurkat cells overexpressing PD-1 and a luciferase construct under NFAT promoter were then immediately seeded on the monolayer of CHO cells. The co-culture was then incubated for 6 hrs at 37° C. Luciferase activity was assessed by adding the ONE-Glo reagent and measuring luminescence with a plate reader. EC50 values were determined from the fit of the dose-response curves.

[2] = target: PD-1/PD-L1 PPI (Homo sapiens, UniProt Q9NZQ7); assay: PDL1/PD1 Binding Assay; conditions: PDL1-6×His 0.3 nM, PD1-Fc-Avi-Biotin 2.5 nM, Acceptor/Donor beads, Envision reader
Experimental: Compounds to be tested were serially diluted in DMSO, and further diluted in assay buffer (25 mM Hepes pH 7.4, 150 mM NaCl, 0.005% Tween 20, BSA 0.01%). Diluted compounds were added to the wells with final concentration of DMSO at 1%. PDL1-6×His protein was added to the wells, mixed well with compound. The plates were incubated for 30 min at room temperature. PD1-Fc-Avi-Biotin protein was added to the wells. Final concentration of PDL1 and PD1 protein is 0.3 nM and 2.5 nM, respectively. After a binding time of 30 min at room temperature, Anti-6×His Acceptor beads (final concentration 20 ug/ml) were added to the wells, and the incubation continued for 1 h. Streptavidin Donor beads (final concentration 20 ug/mL) were added at reduced light. The plates were sealed with foil and incubated in the dark for additional 1 h or overnight before reading on an Envision reader. The IC50 values were determined by fitting the curves using a four-parameter equation in Graphpad Prism 8.

PD-1/PD-L1 PPI, sequence (Q9NZQ7 19-238 limits assumed): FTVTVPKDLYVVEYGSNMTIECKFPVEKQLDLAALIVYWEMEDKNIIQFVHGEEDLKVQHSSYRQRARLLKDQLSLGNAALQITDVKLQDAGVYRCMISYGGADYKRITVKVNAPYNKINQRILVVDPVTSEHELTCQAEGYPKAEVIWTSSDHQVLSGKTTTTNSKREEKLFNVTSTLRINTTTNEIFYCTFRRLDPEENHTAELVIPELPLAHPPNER

## COc1nc(-c2cccc(-c3cccc(NC(=O)c4cn(C)c(=O)n(C)c4=O)c3Cl)c2Cl)cc2c1[C@H](N1CC(OC)C1)CC2 (single isomer, unassigned) [Compound A-25]
[1]
  EC50: ≤ 10 nM
[2]
  IC50: ≤ 10 nM

## COc1nc(-c2cccc(-c3cccc(NC(=O)c4cn(C)c(=O)n(C)c4=O)c3Cl)c2Cl)cc2c1[C@H](N1CC(O)C1)CC2 (single isomer, unassigned) [Compound A-27]
[1]
  EC50: ≤ 10 nM
[2]
  IC50: ≤ 10 nM

## COc1nc(-c2cccc(-c3cccc(NC(=O)c4cn(C)c(=O)n(C)c4=O)c3C)c2Cl)cc2c1[C@H](N1CC(O)C1)CC2 (single isomer, unassigned) [Compound A-28]
[1]
  EC50: ≤ 10 nM
[2]
  IC50: ≤ 10 nM

## COc1nc(-c2cccc(-c3cccc(NC(=O)c4cn(C)c(=O)n(C)c4=O)c3Cl)c2Cl)cc2c1[C@@H](N[C@@H]1CCOC[C@@H]1O)CC2 (single isomer, unassigned) [Compound A-29]
[1]
  EC50: ≤ 10 nM
[2]
  IC50: ≤ 10 nM

## COc1nc(-c2cccc(-c3cccc(NC(=O)c4cn(C)c(=O)n(C)c4=O)c3Cl)c2Cl)cc2c1[C@H](N[C@@H]1CCOC[C@@H]1O)CC2 (single isomer, unassigned) [Compound A-30]
[1]
  EC50: 100 to 1000 nM
[2]
  IC50: ≤ 10 nM

## COc1nc(-c2cccc(-c3cccc(NC(=O)c4cn(C)c(=O)n(C)c4=O)c3Cl)c2C)cc2c1[C@H](N[C@@H]1CCOC[C@@H]1O)CC2 (single isomer, unassigned) [Compound A-31]
[1]
  EC50: 1000 to 10000 nM
[2]
  IC50: ≤ 10 nM

## COc1nc(-c2cccc(-c3cccc(NC(=O)c4cn(C)c(=O)n(C)c4=O)c3C)c2Cl)cc2c1[C@H](N[C@@H]1CCOC[C@@H]1O)CC2 (single isomer, unassigned) [Compound A-33]
[1]
  EC50: ≤ 10 nM
[2]
  IC50: ≤ 10 nM

## COc1nc(-c2cccc(-c3cccc(NC(=O)c4cn(C)c(=O)n(C)c4=O)c3Cl)c2C)cc2c1[C@@H](N[C@@H]1CCOC[C@@H]1O)CC2 (single isomer, unassigned) [Compound A-39]
[1]
  EC50: ≤ 10 nM
[2]
  IC50: ≤ 10 nM

## COc1nc(-c2cccc(-c3cccc(NC(=O)c4cn(C)c(=O)n(C)c4=O)c3C)c2Cl)cc2c1[C@@H](N[C@@H]1CCOC[C@@H]1O)CC2 (single isomer, unassigned) [Compound A-40]
[1]
  EC50: ≤ 10 nM
[2]
  IC50: ≤ 10 nM

## COc1nc(-c2cccc(-c3cccc(NC(=O)c4cn(C)c(=O)n(C)c4=O)c3C)c2C)cc2c1[C@@H](N[C@@H]1CCOC[C@@H]1O)CC2 (single isomer, unassigned) [Compound A-41]
[1]
  EC50: ≤ 10 nM
[2]
  IC50: ≤ 10 nM

## COc1nc(-c2cccc(-c3cccc(NC(=O)c4cn(C)c(=O)n(C)c4=O)c3C)c2F)cc2c1[C@@H](N[C@@H]1CCOC[C@@H]1O)CC2 (single isomer, unassigned) [Compound A-42]
[1]
  EC50: 10 to 100 nM
[2]
  IC50: ≤ 10 nM

## COc1nc(-c2cccc(-c3cccc(NC(=O)c4cn(C)c(=O)n(C)c4=O)c3C)c2C)cc2c1[C@@H](NC[C@@H]1CCC(=O)N1)CO2 (single isomer, unassigned) [Compound A-49]
[1]
  EC50: 10 to 100 nM
[2]
  IC50: ≤ 10 nM

## COc1nc(-c2cccc(-c3cccc(NC(=O)c4cn(C)c(=O)n(C)c4=O)c3C)c2Cl)cc2c1[C@H](N1CC3(CN(C(C)=O)C3)C1)CC2 (single isomer, unassigned) [Compound A-72]
[1]
  EC50: 10 to 100 nM
[2]
  IC50: ≤ 10 nM

## COc1nc(-c2cccc(-c3cc(F)cc(NC(=O)c4nn(C)c(=O)n(C)c4=O)c3C)c2C)cc2c1[C@@H](N[C@@H]1CCOC[C@@H]1O)CC2 (single isomer, unassigned) [Compound A-74]
[1]
  EC50: 10 to 100 nM
[2]
  IC50: ≤ 10 nM

## COc1nc(-c2cccc(-c3cccc(NC(=O)c4nn(C)c(=O)n(C)c4=O)c3C)c2C)cc2c1[C@@H](N[C@@H]1CCOC[C@@H]1O)CC2 (single isomer, unassigned) [Compound A-75]
[1]
  EC50: 10 to 100 nM
[2]
  IC50: ≤ 10 nM

## COc1nc(-c2cccc(-c3cccc(NC(=O)c4cn(C)c(=O)n(C)c4=O)c3C)c2C)cc2c1[C@@H](N1CC(O)C1)CC2 (single isomer, unassigned) [Compound A-79]
[1]
  EC50: > 5000 nM
[2]
  IC50: 10 to 100 nM

## COc1nc(-c2cccc(-c3cccc(NC(=O)c4cn(C)c(=O)n(C)c4=O)c3C)c2C)cc2c1[C@H](N1CC(O)C1)CC2 (single isomer, unassigned) [Compound A-80]
[1]
  EC50: 10 to 100 nM
[2]
  IC50: ≤ 10 nM

## COc1nc(-c2cccc(-c3cccc(NC(=O)c4cn(C)c(=O)n(C)c4=O)c3C)c2C)cc2c1[C@@H](N1CC(OC)C1)CC2 (single isomer, unassigned) [Compound A-83]
[1]
  EC50: 10 to 100 nM
[2]
  IC50: ≤ 10 nM

## COc1nc(-c2cccc(-c3cccc(NC(=O)c4cn(C)c(=O)n(C)c4=O)c3C)c2C)cc2c1[C@H](N1CC(OC)C1)CC2 (single isomer, unassigned) [Compound A-84]
[1]
  EC50: > 5000 nM
[2]
  IC50: 10 to 100 nM

## CCOC(=O)C1CN([C@H]2CCc3cc(-c4cccc(-c5cccc(NC(=O)c6cn(C)c(=O)n(C)c6=O)c5Cl)c4Cl)nc(OC)c32)C1 (single isomer, unassigned) [Compound A-85]
[1]
  EC50: 10 to 100 nM
[2]
  IC50: ≤ 10 nM

## CCOC(=O)C1CN([C@@H]2CCc3cc(-c4cccc(-c5cccc(NC(=O)c6cn(C)c(=O)n(C)c6=O)c5Cl)c4Cl)nc(OC)c32)C1 (single isomer, unassigned) [Compound A-86]
[1]
  EC50: > 5000 nM
[2]
  IC50: 100 to 1000 nM

## CCOC(=O)C1CN([C@H]2CCc3cc(-c4cccc(-c5cccc(NC(=O)c6ccnn(C)c6=O)c5Cl)c4Cl)nc(OC)c32)C1 (single isomer, unassigned) [Compound A-87]
[1]
  EC50: 10 to 100 nM
[2]
  IC50: ≤ 10 nM

## CCOC(=O)C1CN([C@H]2CCc3cc(-c4cccc(-c5cccc(NC(=O)c6ccnn(C)c6=O)c5C)c4Cl)nc(OC)c32)C1 (single isomer, unassigned) [Compound A-88]
[1]
  EC50: 10 to 100 nM
[2]
  IC50: ≤ 10 nM

## COc1nc(-c2cccc(-c3cccc(NC(=O)c4cn(C)c(=O)n(C)c4=O)c3C)c2C)cc2c1[C@@H](N[C@@H]1CCOC[C@H]1O)CC2 (single isomer, unassigned) [Compound A-89]
[1]
  EC50: 1000 to 10000 nM
[2]
  IC50: 10 to 100 nM

## COc1nc(-c2cccc(-c3cccc(NC(=O)c4cn(C)c(=O)n(C)c4=O)c3C)c2C)cc2c1[C@H](N[C@@H]1CCOC[C@H]1O)CC2 (single isomer, unassigned) [Compound A-90]
[1]
  EC50: 10 to 100 nM
[2]
  IC50: ≤ 10 nM

## COc1nc(-c2cccc(-c3cccc(NC(=O)c4nn(C)c(=O)n(C)c4=O)c3C)c2C)cc2c1[C@@H](N[C@@H]1CCOC[C@H]1O)CC2 (single isomer, unassigned) [Compound A-91]
[1]
  EC50: 1000 to 10000 nM
[2]
  IC50: ≤ 10 nM

## COc1nc(-c2cccc(-c3cccc(NC(=O)c4nn(C)c(=O)n(C)c4=O)c3C)c2C)cc2c1[C@H](N[C@@H]1CCOC[C@H]1O)CC2 (single isomer, unassigned) [Compound A-92]
[1]
  EC50: 10 to 100 nM
[2]
  IC50: ≤ 10 nM

## COc1nc(-c2cccc(-c3cccc(NC(=O)c4nn(C)c(=O)n(C)c4=O)c3Cl)c2Cl)cc2c1[C@@H](N[C@@H]1CCOC[C@H]1O)CC2 (single isomer, unassigned) [Compound A-93]
[1]
  EC50: 100 to 1000 nM
[2]
  IC50: ≤ 10 nM

## COc1nc(-c2cccc(-c3cccc(NC(=O)c4nn(C)c(=O)n(C)c4=O)c3Cl)c2Cl)cc2c1[C@H](N[C@@H]1CCOC[C@H]1O)CC2 (single isomer, unassigned) [Compound A-94]
[1]
  EC50: ≤ 10 nM
[2]
  IC50: ≤ 10 nM

## COc1nc(-c2cccc(-c3cccc(NC(=O)c4nn(C)c(=O)n(C)c4=O)c3C)c2Cl)cc2c1[C@@H](N[C@@H]1CCOC[C@H]1O)CC2 (single isomer, unassigned) [Compound A-95]
[1]
  EC50: 100 to 1000 nM
[2]
  IC50: ≤ 10 nM

## COc1nc(-c2cccc(-c3cccc(NC(=O)c4cn(C)c(=O)n(C)c4=O)c3C)c2C)cc2c1[C@@H](N[C@@H]1COC[C@H]1O)CC2 (single isomer, unassigned) [Compound A-97]
[1]
  EC50: 1000 to 10000 nM
[2]
  IC50: 10 to 100 nM

## COc1nc(-c2cccc(-c3cccc(NC(=O)c4cn(C)c(=O)n(C)c4=O)c3C)c2C)cc2c1[C@H](N[C@@H]1COC[C@H]1O)CC2 (single isomer, unassigned) [Compound A-98]
[1]
  EC50: 100 to 1000 nM
[2]
  IC50: ≤ 10 nM

## COc1nc(-c2cccc(-c3cccc(NC(=O)c4nn(C)c(=O)n(C)c4=O)c3Cl)c2Cl)cc2c1[C@@H](N[C@@H]1COC[C@H]1O)CC2 (single isomer, unassigned) [Compound A-99]
[1]
  EC50: 100 to 1000 nM
[2]
  IC50: ≤ 10 nM

## COc1nc(-c2cccc(-c3cccc(NC(=O)c4nn(C)c(=O)n(C)c4=O)c3Cl)c2Cl)cc2c1[C@H](N[C@@H]1COC[C@H]1O)CC2 (single isomer, unassigned) [Compound A-100]
[1]
  EC50: ≤ 10 nM
[2]
  IC50: ≤ 10 nM

## COc1nc(-c2cccc(-c3cccc(NC(=O)c4nn(C)c(=O)n(C)c4=O)c3C)c2Cl)cc2c1[C@@H](N[C@@H]1COC[C@H]1O)CC2 (single isomer, unassigned) [Compound A-101]
[1]
  EC50: > 5000 nM
[2]
  IC50: ≤ 10 nM
